In patent US5888757A, “Cell wall assay” (Millennium Pharmaceuticals, Inc., priority 1996, dated 1999):

Key:
[1] = biological target: T1, CaCHS1p (chitin synthase of Candida albicans) (Candida albicans, UniProt P23316); assay: Chitin synthase inhibition assay (WGA capture / WGA-HRP detection of chitin synthesized in vitro); type: biochemical; conditions: inhibitor added over a range of concentrations, to a maximal concentration of 1 mM; FIG. 3
From the text: Preparation of CaCHS1p Membranes: In this example, chitin synthase was obtained from the S. cerevisiae strain 68-11-2C, transformed with the plasmid pJA16 (Bulawa et al., 1990, Proc. Natl. Acad. Sci. USA, 87:7424-7428 and Au-Young et al., 1990, Mol. Micro. 4:197-207). In strain 68-11-2C, the S. cerevisiae genes encoding chitin synthases 1 and 2 (CHS1 and CHS2, respectively) were genetically disrupted, rendering the strain deficient in production of these enzymes. The plasmid pJA16 encodes the chitin synthase gene of Candida albicans, and provides the only significant source of chitin in this assay.
Generally, the strain 68-1-2C/pJA16 is maintained on a supplemented SD medium. In this example, the cells were grown in 1 liter of SD medium for 48 hrs at 30° C. To provide good aeration, the culture was divided into two 500 ml cultures and grown in 2-liter flasks until the culture reached the stationary phase (i.e., until the OD600 of the culture reached 1.2-1.4). […] The cell walls then were broken by vortexing aliquots (2 ml) of the resuspended cells for 2 minutes with 3 ml of glass beads, according to conventional protocols. The cell extracts then were centrifuged for 5 minutes at 1,000×g, and the resulting supernatant was stored at -80° C. until it was used in the chitin synthase reactions described below. Frozen CaCHS1p membranes can be thawed at 30° C. […]

[2] = biological target: T1, CaCHS1p (chitin synthase of Candida albicans); conditions: known relative potency, Nikkomycin Z versus Asperfuran; cited from earlier work

T1 sequence (P23316 whole entry): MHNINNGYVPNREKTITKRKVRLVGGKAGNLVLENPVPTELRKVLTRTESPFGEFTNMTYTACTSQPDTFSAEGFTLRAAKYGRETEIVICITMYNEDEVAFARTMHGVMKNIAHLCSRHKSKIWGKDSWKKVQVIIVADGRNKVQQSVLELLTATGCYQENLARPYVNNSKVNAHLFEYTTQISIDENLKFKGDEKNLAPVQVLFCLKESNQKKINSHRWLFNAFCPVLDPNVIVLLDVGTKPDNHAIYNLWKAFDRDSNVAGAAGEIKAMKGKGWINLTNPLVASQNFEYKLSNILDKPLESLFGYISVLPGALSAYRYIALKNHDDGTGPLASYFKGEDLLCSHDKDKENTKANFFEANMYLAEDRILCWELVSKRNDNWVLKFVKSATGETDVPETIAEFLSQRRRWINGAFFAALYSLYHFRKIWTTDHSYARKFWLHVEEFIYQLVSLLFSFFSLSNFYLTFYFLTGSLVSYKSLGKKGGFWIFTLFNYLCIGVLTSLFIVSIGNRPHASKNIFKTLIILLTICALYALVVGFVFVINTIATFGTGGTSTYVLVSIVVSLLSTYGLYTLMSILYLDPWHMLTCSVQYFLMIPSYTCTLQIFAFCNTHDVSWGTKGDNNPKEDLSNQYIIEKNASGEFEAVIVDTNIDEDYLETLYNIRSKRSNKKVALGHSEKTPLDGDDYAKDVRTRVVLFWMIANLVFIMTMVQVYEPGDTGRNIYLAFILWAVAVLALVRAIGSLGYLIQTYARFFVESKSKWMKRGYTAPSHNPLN

Structure (SMILES) | inhibition of chitin synthase [1] | relative potency as inhibitor of CaCHS1p activity [2]
C/C=C/C=C/[C@H]1Cc2cc(O)cc(O)c2O1 [Asperfuran] | an increase in the concentration of either of these chitin synthase inhibitors causes an increase in the inhibition of chitin synthase | 
C[C@@H]([C@H](N)C(=O)N[C@H](C(=O)O)[C@H]1O[C@@H](n2ccc(=O)[nH]c2=O)[C@H](O)[C@@H]1O)[C@H](O)c1ccc(O)cn1 [Nikkomycin Z] | an increase in the concentration of either of these chitin synthase inhibitors causes an increase in the inhibition of chitin synthase | more potent inhibitor of CaCHS1p activity than is Asperfuran
